Measured values taken from patent publication US9126989B2, “Compound and methods for treating long QT syndrome” (Gilead Sciences, Inc., priority 2013, dated 2015).
“Also recorded” adds a separate entry of the source.

Assays:
P-glycoproteins = P-glycoproteins (Homo sapiens, UniProt P08183); experiment: P-glycoprotein inhibition; type: in vitro ADME
[1] = system: model of long QT syndrome-3 (LQT3); experiment: Model of LQT-3: action potential duration and beat-to-beat variability
[2] = system: rabbit isolated wedge preparation; experiment: Rabbit isolated left ventricular wedge preparation, E-4031 model of LQT-2; conditions: 60 nM E-4031, 300 nM Compound 1, cycle lengths 500, 1000 and 2000 msec
Experimental: E-4031 is an inhibitor of IKr.
Rabbit isolated left ventricular wedge was prepared as previously described (Yan et al, 1996, 2009). Briefly, the chest was opened via a left thoracotomy, and the heart was excised, placed in a cardioplegic solution consisting of cold (4° C.) Tyrode's solution containing 20 mmol/L […], and transported to a dissection tray. Transmural wedges with dimensions of approximately 1×1×0.8 or 0.8×0.8×0.4 cm^3 were dissected from the left ventricle. The tissue was cannulated via a small (diameter, ≈100 μm) branch of the left anterior descending artery or another coronary artery and perfused with cardioplegic solution. The total period of time from excision of the heart to cannulation and perfusion of the artery was less than 4 minutes. Unperfused tissue was carefully removed with a razor blade. The preparation was then placed in a tissue bath and arterially perfused with Tyrode's solution of the following composition (mmol/L): NaCl 129, KCl 4, NaH2PO4 0.9, NaHCO3 20, Ca 1.8, MgSO4 0.5, glucose 5.5, and insulin 1 U/L, buffered with 95% O2/5% CO2 (36±1° C.). The perfusate was delivered to the artery by a roller pump (Cole Panner Instrument Co). Perfusion pressure was monitored with a pressure transducer (World Precision Instruments, Inc) and maintained between 40 and 50 mm Hg by adjustment of the perfusion flow rate. The preparations remained immersed in the arterial perfusate, which was allowed to rise to a level 2 to 3 mm above the tissue surface (36±1° C.).

rabbit isolated heart = experiment: Rabbit isolated heart, E-4031 model of LQT-2 and drug-induced QT prolongation
Source text: E-4031 is an inhibitor of IKr. […] Hearts were paced at a rate of 1 Hz.
The use of rabbits (New Zealand White adult females, 2-4 kg; Western Oregon Rabbit Company, Philomath, Oreg.) in this investigation conformed to the “Guide for the Care and Use of Laboratory Animals” (NIH publication No. 85-23, revised 1996) and was approved by the Institutional Animal Care and Use Committees of Gilead Sciences. Hearts were isolated and perfused by the method of Langendorff as previously described (Wu et al., 2009). Briefly, the atrioventricular nodal area was thermally ablated to produce heart block, and hearts were paced at a rate of 1 Hz. Monophasic action potentials (MAPs) from the left ventricular epicardium and pseudo 12-lead electrocardiograms (ECGs) were recorded. […] The duration of the MAP at the level at which repolarization is 90% complete (MAPD90) was measured.

[3] = system: cytochrome P450 (CYP) enzymes; experiment: Cytochrome P450 inhibition; type: in vitro ADME
[4] = target: T1, cardiac late sodium current (INa) (Homo sapiens, UniProt Q14524); experiment: Inhibition of the cardiac late sodium current; type: biochemical
T1 sequence (Q14524 whole entry): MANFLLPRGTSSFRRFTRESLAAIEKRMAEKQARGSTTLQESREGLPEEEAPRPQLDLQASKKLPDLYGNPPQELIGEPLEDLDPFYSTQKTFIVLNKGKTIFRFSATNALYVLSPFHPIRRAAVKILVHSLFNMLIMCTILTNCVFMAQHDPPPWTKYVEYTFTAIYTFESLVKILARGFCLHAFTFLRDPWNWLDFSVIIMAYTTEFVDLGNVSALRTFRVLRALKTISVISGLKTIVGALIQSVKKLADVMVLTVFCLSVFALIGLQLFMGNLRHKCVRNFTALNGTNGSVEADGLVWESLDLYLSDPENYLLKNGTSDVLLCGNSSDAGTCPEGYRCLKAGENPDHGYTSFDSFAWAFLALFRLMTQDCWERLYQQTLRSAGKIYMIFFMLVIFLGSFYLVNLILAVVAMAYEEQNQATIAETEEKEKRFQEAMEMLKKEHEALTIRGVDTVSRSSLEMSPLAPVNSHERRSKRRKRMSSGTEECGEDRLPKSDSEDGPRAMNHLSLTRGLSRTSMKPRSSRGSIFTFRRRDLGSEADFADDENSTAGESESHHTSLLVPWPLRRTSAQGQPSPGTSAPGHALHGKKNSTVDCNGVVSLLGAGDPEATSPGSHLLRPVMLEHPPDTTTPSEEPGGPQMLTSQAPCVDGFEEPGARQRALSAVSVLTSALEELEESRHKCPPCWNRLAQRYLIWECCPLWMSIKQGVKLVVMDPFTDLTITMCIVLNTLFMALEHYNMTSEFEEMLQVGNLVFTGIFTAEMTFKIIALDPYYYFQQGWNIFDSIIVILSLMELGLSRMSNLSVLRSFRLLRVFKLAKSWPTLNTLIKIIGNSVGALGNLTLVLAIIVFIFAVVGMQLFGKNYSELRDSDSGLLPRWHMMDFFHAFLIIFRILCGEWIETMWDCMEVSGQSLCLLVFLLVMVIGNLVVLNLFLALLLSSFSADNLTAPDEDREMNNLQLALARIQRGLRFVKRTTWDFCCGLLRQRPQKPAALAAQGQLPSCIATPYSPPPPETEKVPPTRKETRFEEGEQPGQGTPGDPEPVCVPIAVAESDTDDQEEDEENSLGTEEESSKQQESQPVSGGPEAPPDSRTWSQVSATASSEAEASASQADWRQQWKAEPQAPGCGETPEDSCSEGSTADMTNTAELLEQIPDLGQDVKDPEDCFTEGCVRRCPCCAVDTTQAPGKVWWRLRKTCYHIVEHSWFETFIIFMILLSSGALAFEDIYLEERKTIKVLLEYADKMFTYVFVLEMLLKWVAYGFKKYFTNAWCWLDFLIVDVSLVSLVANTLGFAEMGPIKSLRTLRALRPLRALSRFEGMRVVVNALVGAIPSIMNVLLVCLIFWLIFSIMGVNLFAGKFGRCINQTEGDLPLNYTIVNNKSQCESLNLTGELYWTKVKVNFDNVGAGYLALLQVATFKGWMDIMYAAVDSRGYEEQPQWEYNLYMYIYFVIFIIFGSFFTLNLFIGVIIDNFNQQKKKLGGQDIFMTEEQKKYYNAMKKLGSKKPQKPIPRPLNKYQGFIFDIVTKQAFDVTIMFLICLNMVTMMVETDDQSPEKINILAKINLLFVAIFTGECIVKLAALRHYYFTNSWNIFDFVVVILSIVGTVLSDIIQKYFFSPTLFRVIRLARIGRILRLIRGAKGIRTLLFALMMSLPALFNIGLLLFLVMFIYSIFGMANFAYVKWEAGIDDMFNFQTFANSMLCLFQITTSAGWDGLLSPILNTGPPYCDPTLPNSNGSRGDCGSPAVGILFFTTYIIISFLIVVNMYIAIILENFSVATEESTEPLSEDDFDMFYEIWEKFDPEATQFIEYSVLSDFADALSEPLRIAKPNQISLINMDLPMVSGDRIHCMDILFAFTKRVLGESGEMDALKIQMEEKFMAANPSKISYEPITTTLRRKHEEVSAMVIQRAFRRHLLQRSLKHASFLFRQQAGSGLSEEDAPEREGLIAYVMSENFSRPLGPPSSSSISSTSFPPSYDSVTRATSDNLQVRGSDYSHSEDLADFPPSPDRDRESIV

[5] = target: T1, cardiac late sodium current (INa); conditions: see US 2013/0012492; cited from earlier work
[6] = PK after single oral dose in patients with LQT-3; type: in vivo, human
Source text: This is similar to the PK profile of Compound 1 in healthy volunteers.

patients with LQT3 = experiment: Phase 1 clinical study in patients with LQT3 (QTc, ECHO, tolerability); type: in vivo, human; conditions: for Tolerability: Phase 1; for Change in QTc from baseline: all dose levels (10-60 mg single, multiple dose cohort)
Experimental: In an ongoing Phase 1, effect of oral Compound (I) on the QTc interval in subjects with LQT3 was evaluated. Subjects with LQT3 identified from the LQTS registry with proven mutations in the cardiac sodium channel and a QTc >460 msec will be enrolled. Four sequential single dose cohorts and 1 multiple dose cohort were enrolled and received a single dose of Compound (I) (Cohort 1: 10 mg; Cohort 2: 20 mg; Cohort 3: 30 mg; Cohort-4: 60 mg) or multiple doses of Compound (I) (Cohort 5: Day 1—20 mg, Day 2—40 mg, Days 3-7—6 mg once daily).
Ten subjects were enrolled. Among these 10 subjects, 3 subjects received single oral dose of Compound (I), 5 subjects received Compound (I) at 2 different dose periods, and 2 subjects received Compound (I) at 3 different dose periods. […] Changes in QTc interval from baseline (Day −1 for Cohorts 1-4; average of Day −2 and Day −1 for Cohort 5) were analyzed in 2 different ways: 1) changes in average daytime QTc during 12 hours postdose (QTc interval AUC0-12/12) and 2) maximal time-matched QTc changes within 12 hours postdose. […] In the multiple dose cohort (shown in FIG. 5-6), the effect of Compound (I) on QTc shortening was dose-dependent with a larger QTc shortening after 40 mg on Day 2 compared to 20 mg on Day 1. More importantly, the QTc shortening was sustained during the maintenance doses of 6 mg from Days 3-7.
In addition, effect of Compound (I) on cardiac function was assessed by ECHO. For the single dose cohorts, echocardiography (ECHO) was performed at baseline (Day −1) and at 3 and 6 hours after the single oral dose of Compound (I) on Day 1. For the multiple dose cohort (Cohort 5), ECHO was performed at baseline (Day −1), at 3 and 6 hours after the single oral dose of Compound (I) on Day 1, and at 3 hours after dose on Day 4 and Day 7.

[7] = after single dose administration
[8] = LQT3 patients, listed as Compound (I)

Sequence of P-glycoproteins (P08183 whole entry): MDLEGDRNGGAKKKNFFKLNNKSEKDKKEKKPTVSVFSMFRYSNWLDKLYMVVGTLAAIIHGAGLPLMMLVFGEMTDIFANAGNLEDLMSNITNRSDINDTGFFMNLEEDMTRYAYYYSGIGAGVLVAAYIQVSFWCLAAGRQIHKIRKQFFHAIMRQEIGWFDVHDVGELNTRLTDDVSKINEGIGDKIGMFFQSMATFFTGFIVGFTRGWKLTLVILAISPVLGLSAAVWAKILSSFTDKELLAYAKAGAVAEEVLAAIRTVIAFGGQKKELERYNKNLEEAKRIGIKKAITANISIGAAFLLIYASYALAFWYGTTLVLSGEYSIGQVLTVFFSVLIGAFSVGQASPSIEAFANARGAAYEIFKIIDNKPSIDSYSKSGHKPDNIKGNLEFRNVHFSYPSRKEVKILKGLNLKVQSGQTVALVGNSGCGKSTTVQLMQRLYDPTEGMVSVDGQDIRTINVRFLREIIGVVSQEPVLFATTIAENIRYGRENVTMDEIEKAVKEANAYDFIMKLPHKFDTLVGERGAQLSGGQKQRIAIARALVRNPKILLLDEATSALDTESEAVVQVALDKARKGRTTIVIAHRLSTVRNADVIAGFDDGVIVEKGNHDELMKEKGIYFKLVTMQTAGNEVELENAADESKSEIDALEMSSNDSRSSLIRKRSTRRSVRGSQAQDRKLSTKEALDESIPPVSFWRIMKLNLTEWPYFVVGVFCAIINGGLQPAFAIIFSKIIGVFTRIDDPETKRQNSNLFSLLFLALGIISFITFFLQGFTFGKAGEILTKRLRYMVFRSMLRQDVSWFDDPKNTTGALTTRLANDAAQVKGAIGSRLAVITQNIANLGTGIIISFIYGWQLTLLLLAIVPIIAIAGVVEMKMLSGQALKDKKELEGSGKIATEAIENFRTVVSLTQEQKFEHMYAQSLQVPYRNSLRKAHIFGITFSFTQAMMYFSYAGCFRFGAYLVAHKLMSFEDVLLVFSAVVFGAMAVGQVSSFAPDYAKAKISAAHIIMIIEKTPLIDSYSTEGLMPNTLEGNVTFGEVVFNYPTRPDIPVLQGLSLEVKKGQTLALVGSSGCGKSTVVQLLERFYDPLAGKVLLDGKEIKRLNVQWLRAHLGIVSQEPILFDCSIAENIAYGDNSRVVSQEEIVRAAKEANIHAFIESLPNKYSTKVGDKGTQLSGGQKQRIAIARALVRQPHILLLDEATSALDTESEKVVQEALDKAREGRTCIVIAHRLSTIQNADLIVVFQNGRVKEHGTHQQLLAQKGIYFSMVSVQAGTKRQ

O=C1c2cc(-c3ccc(OC(F)(F)F)cc3)ccc2OCCN1Cc1ncccn1 [Compound 1, 4-(pyrimidin-2-ylmethyl)-7-(4-(trifluoromethoxy)phenyl)-3,4-dihydrobenzo[f][1,4]oxazepin-5(2H)-one]
Inhibition of P-glycoproteins (P-glycoproteins): does not inhibit
Beat-to-beat variability ([1]; model of LQT3, FIG. 2): reduction
Action potential duration (APD) ([1]; model of LQT-3, FIG. 1): shortening
Prolonged action potential duration (APD) [2]: shortens
QT interval [2]: shortens
Tpeak to Tend (TpTe) [2]: shortens
Prolonged monophasic action potential (MAP) (rabbit isolated heart; 60 nM E-4031, 100 and 300 nM Compound 1, paced at 1 Hz): shortens
Torsades de pointes (TdP) ventricular tachyarrhythmia (rabbit isolated heart; induced by 60 nM E-4031, paced at 1 Hz): suppresses
Inhibition of cytochrome P450 (CYP) enzymes [3]: does not inhibit
Inhibition of the cardiac late sodium current (INa) [4]: potent and selective inhibitors
Late sodium channel inhibition [5]: potent late sodium channel inhibitors
Absorption [6, 7]: fast absorption
Clearance [6, 7]: low clearance
Decline of concentration [6, 7]: biphasic decline
Half-life [6, 7]: long half-life
PK profile in LQT3 patients compared with healthy volunteers ([6]; single oral dose, FIG. 4): similar
Efficacy (QTc shortening or T-wave morphology) (patients with LQT3; 10 mg, three patients with inherited LQT3): preliminary efficacy
Dependence of QTc shortening on mutations or concomitant use of b-blockers (patients with LQT3; LQT3 patients): independent
Tolerability (patients with LQT3; LQT3 patients): well tolerated
Tolerability (patients with LQT3; [8]): well tolerated; also recorded: well-tolerated
Change in QTc from baseline (patients with LQT3; LQT3 patients): changes in QTc from baseline
Change in QTc from baseline (patients with LQT3; [8]): Shortening of QTc was observed at all dose levels; also recorded: shortens QTc interval
Left ventricular (LV) functions / cardiac function assessed by ECHO (patients with LQT3; LQT3 patients, single and multiple dose cohorts, listed as Compound (I)): did not affect; also recorded: no effect
Treatment of long QT syndrome in humans, specifically LQT3 (patients with LQT3; human, in vivo): effective
Persistence of QTc shortening (patients with LQT3; maintenance doses of 6 mg from Days 3-7): sustained
Dose dependence of QTc shortening (patients with LQT3; multiple dose cohort, 40 mg on Day 2 compared to 20 mg on Day 1): dose-dependent
QTc shortening (patients with LQT3; ten LQT-3 patients, single dose 10 mg, 20 mg, 30 mg or 60 mg): 20-100 milliseconds

O=C1c2cc(-c3ccc(C(F)(F)F)cc3)ccc2OCCN1Cc1ncccn1 [Compound 2, 4-(pyrimidin-2-ylmethyl)-7-(4-(trifluoromethyl)phenyl)-3,4-dihydrobenzo[f][1,4]oxazepin-5(2H)-one]
Inhibition of the cardiac late sodium current (INa) [4]: potent and selective inhibitors
Late sodium channel inhibition [5]: potent late sodium channel inhibitors
